Holding throughout (format): cell-based
The test system of assay [1] is peripheral blood mononuclear cells (PBMC). Nature of the assay: Stimulation of IL12 secretion from PBMC (ELISA). To be noted: minimum effective concentration, human PBMC, 24 hours. As to the method:
The stimulating effect of the compounds of the present invention on the ability of secretion of IL12 and IFN γ from PBMC was determined by the following experimental method.
• 1. RMPI 1640 (Invitrogen, 11875); • 2. FBS (Gibco, 10099-141); • 3. Ficoll-Paque PREMIUM (GE, 17-5442-02); • 4. Trypan blue solution (Sigma, T8154-100 ML); • 5. SepMate™-50 (Stemcell, 15460); • 6. Bright-LineIM blood cell counter (Sigma, Z359629-1EA); • 7. 96-well cell culture plate (Corning, 3599); • 8. 96-well v-bottom plate (Corning, 3894); • 9. Human IL-12 ELISA kit (Neobioscience Technology Co., EHC152.96); • 10. Human IFN γ kit (cisbio, 62HIFNGPEG); and • 11. PHERAStar multi-function microplate reader (BMG, PHERAStar). II. Experimental Procedures
The compound was diluted with pure DMSO to a maximum concentration of 5 mM, and a total of 9 points were obtained by a 4-fold gradient dilution. 4 μl of the compound solution was then added to 196 μl of RMPI 1640 medium containing 10% FBS and mixed well. 50 μl of the mixture was taken and added to a 96-well cell culture plate.
All reagents were equilibrated to room temperature. 60 ml of blood from a healthy human and the same volume of PBS (containing 2% FBS) were added to a 250 ml culture flask, gently pipetted, mixed well and diluted. 15 ml of lymphocyte separation solution Ficoll-Paque PREMIUM was added to a 50 ml PBMC centrifuge tube SepMate™-50, followed by the addition of 30 ml of the above diluted blood. The mixture was centrifuged at 1200 g for 10 minutes at room temperature. The supernatant was taken and then centrifuged at 300 g for 8 minutes. The cells were re-suspended in the RMPI 1640 medium containing 10% FBS and counted, and the number of PBMCs was adjusted to 3.33×10^6 cells/ml. 150 μl of the cell solution was added to the plate containing the compounds, and incubated in an incubator at 37° C., 5.0% CO2 for 24 hours. The cell culture plate was placed in a centrifuge, and centrifuged at 1200 rpm for 10 minutes at room temperature. 150 μl of the supernatant was taken from each well.
The reagents in the Human IL-12 ELISA kit were equilibrated to room temperature. According to the kit's instruction, the highest concentration of the standard is 2000 pg/ml, and a total of 8 points were obtained by a 2-fold gradient dilution. The sample to be tested was diluted 20 folds. The solution was then added to a pre-coated plate at 100 μl/well. The plate was incubated at 37° C. for 90 minutes and rinsed. The […] was added at 100 μl/well, and the plate was incubated at 37° C. for 60 minutes and rinsed. HRP binding enzyme was added at 100 μl/well, and the plate was incubated at 37° C. for 30 minutes and rinsed. TMB was added, and the plate was incubated at room temperature for 5 minutes. Finally, the stop solution was added to stop the reaction, and the absorbance at 450 nm was read by the microplate reader.
The concentration of the compound that can stimulate PBMC to produce […] that is 3 times higher than the average value of the group without the compound (SD of the group without the compound) was defined as the minimum effective concentration (MEC) value of the compound.

The next assay deals with human TLR8 (Homo sapiens (Human), UniProt Q9NR97). Nature of the assay: Agonist activity on human TLR8 in HEK-Blue hTLR8 stably transfected cells. To be noted: 16 hours, OD 620 nm. Here is the method:
The agonist effect of the compounds of the present invention on hTLR8 expressed by the HEK-Blue™ hTLR8 stably transfected cells was determined by the following experimental method.
(§1) • 1. DMEM(Gibco, 10564-029); • 2. Fetal bovine serum (GIBCO, 10099); • 3. Trypan blue solution (Sigma, T8154-100 ML); • 4. Flexstation 3 multi-function microplate reader (Molecular Devices); • 5. HEK-Blue™ hTLR8 cell line (InvivoGen, hkb-hTLR8), or HEK-Blue™ hTLR7 cell line (InvivoGen, hkb-hTLR7); • 6. HEK-Blue detection reagent (InvivoGen, hb-det3); and • 7. Phosphate buffer solution (PBS) pH 7.4 (Shanghai Basalmedia Technologies Co., Ltd., B320). II. Experimental Procedures a. Determination of Agonist Activity on Human TLR8
(§2) A bag of HEK-Blue detection dry powder was dissolved in 50 ml of water free of endotoxin, and the solution was then placed in an incubator at 37° C. for 10 minutes followed by sterile filtration to prepare a HEK-Blue detection medium. The compound was firstly formulated into a 20 mM stock solution, then diluted with pure DMSO to a maximum concentration of 6×10^6 nM, and a total of 10 points were obtained by a 3-fold gradient dilution. The above formulated compound was firstly diluted 20-fold with the medium, then 20 μl of the diluted compound was added to each well.
The supernate was removed from the HEK-Blue™ hTLR8 cells, to which 2-5 ml of pre-warmed PBS was then added. The cells were placed in an incubator for 1-2 minutes, gently pipetted, and counted by trypan blue staining. The cells were re-suspended in the HEK-Blue detection medium to adjust the concentration to 2.2×10^5 cells/ml. 180 μl of cells was added to the above 96-well plate comprising 20 μl of the compound, and incubated at 37° C. for 16 hours.
(§3) The corresponding OD values were obtained by a microplate reader at a wavelength of 620 nm, and the EC50 values of the compounds were calculated by Graphpad Prism.

For the next assay, the target named is human TLR7 (Homo sapiens (Human), UniProt Q9NYK1). Description: Agonist activity on human TLR7 in HEK-Blue hTLR7 cells. Particulars: 16 hours, OD 620 nm. Here is the method: as §1, §2
Sequence of human TLR7 (Q9NYK1 27-1049): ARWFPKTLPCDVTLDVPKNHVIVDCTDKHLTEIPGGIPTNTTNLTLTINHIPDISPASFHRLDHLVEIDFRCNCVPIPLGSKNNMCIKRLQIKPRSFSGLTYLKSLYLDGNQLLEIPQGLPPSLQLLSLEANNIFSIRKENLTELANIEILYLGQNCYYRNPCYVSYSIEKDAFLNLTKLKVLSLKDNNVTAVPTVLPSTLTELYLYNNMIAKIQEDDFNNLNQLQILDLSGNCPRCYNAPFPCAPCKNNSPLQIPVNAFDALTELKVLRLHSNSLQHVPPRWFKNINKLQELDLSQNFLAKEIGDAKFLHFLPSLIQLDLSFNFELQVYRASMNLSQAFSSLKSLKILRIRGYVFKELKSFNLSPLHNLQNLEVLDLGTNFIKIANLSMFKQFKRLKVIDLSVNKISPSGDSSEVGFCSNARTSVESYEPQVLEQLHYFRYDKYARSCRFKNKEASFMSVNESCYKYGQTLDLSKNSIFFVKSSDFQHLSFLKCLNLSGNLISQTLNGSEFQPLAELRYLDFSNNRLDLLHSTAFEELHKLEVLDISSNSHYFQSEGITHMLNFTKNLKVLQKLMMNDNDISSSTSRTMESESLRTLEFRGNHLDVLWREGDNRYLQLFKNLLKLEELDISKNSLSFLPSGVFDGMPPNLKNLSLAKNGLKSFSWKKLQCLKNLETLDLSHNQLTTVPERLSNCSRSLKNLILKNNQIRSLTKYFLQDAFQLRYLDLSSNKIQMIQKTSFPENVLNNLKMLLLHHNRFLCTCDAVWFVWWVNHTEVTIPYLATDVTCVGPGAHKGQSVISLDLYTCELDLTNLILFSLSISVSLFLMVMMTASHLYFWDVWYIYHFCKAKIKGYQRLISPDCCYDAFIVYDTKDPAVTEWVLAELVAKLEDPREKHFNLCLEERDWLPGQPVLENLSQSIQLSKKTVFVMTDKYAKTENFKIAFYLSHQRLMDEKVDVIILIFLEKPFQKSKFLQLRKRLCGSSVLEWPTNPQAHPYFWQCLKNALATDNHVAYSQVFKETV
The supernate was removed from the HEK-Blue™ hTLR7 cells, to which 2-5 ml of pre-warmed PBS was then added. The cells were placed in an incubator for 1-2 minutes, gently pipetted, and counted by trypan blue staining. The cells were re-suspended in the HEK-Blue detection medium to adjust the concentration to 2.2×10^5 cells/ml. 180 μl of cells was added to the above 96-well plate comprising 20 μl of the compound, and incubated at 37° C. for 16 hours.
as §3

Structures are written as SMILES.

Sequence of human TLR8 (Q9NR97 27-1041): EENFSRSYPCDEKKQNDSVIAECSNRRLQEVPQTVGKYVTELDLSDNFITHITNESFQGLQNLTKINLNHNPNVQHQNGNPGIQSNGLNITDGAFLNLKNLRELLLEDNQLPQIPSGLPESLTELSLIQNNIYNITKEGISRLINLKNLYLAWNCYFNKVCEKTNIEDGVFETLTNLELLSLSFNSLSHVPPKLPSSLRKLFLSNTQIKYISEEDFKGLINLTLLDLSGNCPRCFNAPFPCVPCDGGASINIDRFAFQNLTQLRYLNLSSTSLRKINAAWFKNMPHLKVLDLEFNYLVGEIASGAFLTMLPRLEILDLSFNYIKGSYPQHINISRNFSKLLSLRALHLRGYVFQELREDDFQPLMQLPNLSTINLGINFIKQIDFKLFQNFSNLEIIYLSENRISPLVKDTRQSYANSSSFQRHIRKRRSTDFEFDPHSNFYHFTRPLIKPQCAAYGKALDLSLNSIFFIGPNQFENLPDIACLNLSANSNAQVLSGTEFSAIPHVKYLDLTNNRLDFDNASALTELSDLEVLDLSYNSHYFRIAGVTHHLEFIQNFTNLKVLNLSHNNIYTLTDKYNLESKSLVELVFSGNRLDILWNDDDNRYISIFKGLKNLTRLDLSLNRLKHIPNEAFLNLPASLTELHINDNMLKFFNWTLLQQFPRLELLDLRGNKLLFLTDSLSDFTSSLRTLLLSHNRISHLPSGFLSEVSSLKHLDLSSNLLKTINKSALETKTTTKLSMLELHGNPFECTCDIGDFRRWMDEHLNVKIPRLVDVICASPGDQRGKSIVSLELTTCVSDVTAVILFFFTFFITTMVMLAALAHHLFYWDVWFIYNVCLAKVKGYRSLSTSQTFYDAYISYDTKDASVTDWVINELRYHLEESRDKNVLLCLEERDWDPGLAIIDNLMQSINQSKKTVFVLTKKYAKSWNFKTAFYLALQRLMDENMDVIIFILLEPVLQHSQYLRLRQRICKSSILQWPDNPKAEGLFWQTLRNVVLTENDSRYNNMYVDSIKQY

`CCCC[C@](C)(CO)Nc1nc(N)nc2cc(-c3ccc(CN4CCCC4)nc3)cnc12` [Example 2, (R)-2-((2-Amino-7-(6-(pyrrolidin-1-ylmethyl)pyridin-3-yl)pyrido[3,2-d]pyrimidin-4-yl)amino)-2-methylhexan-1-ol]: the “IL12 MEC” value in assay [1] amounted to 23 nM. Also, at human TLR8, the midpoint of the response, the EC50, lay at 80 nM and the maximal effect (Emax) (commonly the size of the effect at its maximum, as opposed to the concentration needed) worked out at 106%.
For the compound `CCCC[C@](C)(CO)Nc1nc(N)nc2cc(-c3cnc(C4CCN(C)CC4)nc3)cnc12` [Example 8, (R)-2-((2-Amino-7-(2-(1-methylpiperidin-4-yl)pyrimidin-5-yl)pyrido[3,2-d]pyrimidin-4-yl)amino)-2-methylhexan-1-ol], in assay [1], the “IL12 MEC” value was 5 nM. Besides, the values for the EC50 on human TLR7 and at human TLR8 were over 19000 nM and 40 nM, respectively. Besides, the Emax at human TLR7 came to 73%; on human TLR8, 114%.
For the compound `CCCCC(C)(CO)Nc1nc(N)nc2cc(-c3ccc(CN4CCN(C)CC4)nc3)cnc12` (stereo not shown) [Example 5, 2-((2-Amino-7-(6-((4-methylpiperazin-1-yl)methyl)pyridin-3-yl)pyrido[3,2-d]pyrimidin-4-yl)amino)-2-methylhexan-1-ol], on human TLR7, the EC50 (in general, the concentration that produces a half-maximal response) was over 30000 nM and the Emax was 14%. On human TLR8, this compound gave a concentration giving a half-maximal response (EC50) of 270 nM and an Emax of 110%.
`CCCC[C@](C)(CO)Nc1nc(N)nc2cc(-c3ccc(CN4CCN(C)CC4)nc3)cnc12` [Example 6, (R)-2-((2-Amino-7-(6-((4-methylpiperazin-1-yl)methyl)pyridin-3-yl)pyrido[3,2-d]pyrimidin-4-yl)amino)-2-methylhexan-1-ol]: in assay [1], the “IL12 MEC” value was 41 nM. At human TLR7, this compound returned a concentration giving a half-maximal response (EC50) of over 30000 nM and a maximal response (Emax) of 14%. On human TLR8, this compound gave a concentration giving a half-maximal response (EC50) of 100 nM and an Emax of 107%.
For `CCCC[C@](C)(CO)Nc1nc(N)nc2cc(-c3ccc(C4CCN(C)CC4)nc3)cnc12` [Example 4, (R)-2-((2-Amino-7-(6-(1-methylpiperidin-4-yl)pyridin-3-yl)pyrido[3,2-d]pyrimidin-4-yl)amino)-2-methylhexan-1-ol], the “IL12 MEC” value in assay [1] worked out at 31 nM. Further, the EC50 is over 30000 nM on human TLR7 and 100 nM on human TLR8. Moreover, the Emax at human TLR7 worked out at 12%; on human TLR8, 97%.

The values above are taken from patent US12162879B2, “Pyridopyrimidine derivative, preparation method therefor and medical use thereof” (Jiangsu Hengrui Medicine Co., Ltd., priority 2018, dated 2024).
